According to PubChem BioAssay (NCI):
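Method: 48-hour compound exposure of cells in 96-well plates, five concentrations, linear interpolation of endpoints. At the TGI there is no net growth.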

What was measured:
Test in all cases: NCI-60 cell line screen, 48 h
TK-10 renal = tested on: TK-10 renal
NCI-H460 lung = tested on: NCI-H460 lung
PC-3 prostate = tested on: PC-3 prostate
HS 578T breast = tested on: HS 578T breast
MCF7 breast = tested on: MCF7 breast
SK-MEL-28 melanoma = tested on: SK-MEL-28 melanoma
COLO 205 colon = tested on: COLO 205 colon
CAKI-1 renal = tested on: CAKI-1 renal
SN12C renal = tested on: SN12C renal
DU-145 prostate = tested on: DU-145 prostate
LOX IMVI melanoma = tested on: LOX IMVI melanoma
M14 melanoma = tested on: M14 melanoma
HCC-2998 colon = tested on: HCC-2998 colon
HT29 colon = tested on: HT29 colon
SK-MEL-5 melanoma = tested on: SK-MEL-5 melanoma
SK-MEL-2 melanoma = tested on: SK-MEL-2 melanoma
UACC-257 melanoma = tested on: UACC-257 melanoma
BT-549 breast = tested on: BT-549 breast
RPMI-8226 leukemia = tested on: RPMI-8226 leukemia

SMILES | TGI (TK-10 renal) | TGI (NCI-H460 lung) | TGI (PC-3 prostate) | TGI (HS 578T breast) | TGI (MCF7 breast) | TGI (SK-MEL-28 melanoma) | TGI (COLO 205 colon) | TGI (CAKI-1 renal) | TGI (SN12C renal) | TGI (DU-145 prostate) | TGI (LOX IMVI melanoma) | TGI (M14 melanoma) | TGI (HCC-2998 colon) | TGI (HT29 colon) | TGI (SK-MEL-5 melanoma) | TGI (SK-MEL-2 melanoma) | TGI (UACC-257 melanoma) | TGI (BT-549 breast) | TGI (RPMI-8226 leukemia)
CC1CN=C(N(C(=O)Nc2ccc(Cl)cc2)c2cccc(Cl)c2)S1 (stereo unspecified) | 62.1 µM | > 100 µM | > 100 µM | > 100 µM | > 100 µM | > 100 µM | 40.1 µM | > 100 µM | 83.9 µM | > 100 µM | > 100 µM | > 100 µM | 84.6 µM | > 100 µM | 33.7 µM | 44.9 µM | > 100 µM | – | –
CS(=O)(=O)c1ccc(C(=O)O[C@@H]2C(=O)N3CC[C@H]4OC(O)[C@@H]2[C@H]43)cc1 (stereo partly specified) | > 100 µM | > 100 µM | > 100 µM | – | > 100 µM | > 100 µM | > 100 µM | > 100 µM | – | > 100 µM | > 100 µM | > 100 µM | > 100 µM | > 100 µM | > 100 µM | > 100 µM | > 100 µM | > 100 µM | > 100 µM
Cc1cc(OP2(=O)NCc3ccncc3O2)ccc1Cl (stereo unspecified) | – | > 100 µM | > 100 µM | – | > 100 µM | > 100 µM | > 100 µM | > 100 µM | > 100 µM | > 100 µM | > 100 µM | > 100 µM | > 100 µM | > 100 µM | > 100 µM | > 100 µM | > 100 µM | > 100 µM | > 100 µM
N#CC12CC(C=O)=C(N)C1(C#N)CC(C=O)=C2N (stereo unspecified) | > 100 µM | – | > 100 µM | > 100 µM | > 100 µM | > 100 µM | > 100 µM | > 100 µM | > 100 µM | > 100 µM | > 100 µM | > 100 µM | 80 µM | > 100 µM | 54.1 µM | 76.3 µM | > 100 µM | – | > 100 µM
CC1=C(O)C(=O)C2C(=O)C1C(C)C2c1ccccc1 (stereo unspecified) | > 100 µM | – | – | – | – | > 100 µM | > 100 µM | > 100 µM | – | – | > 100 µM | > 100 µM | > 100 µM | > 100 µM | > 100 µM | > 100 µM | > 100 µM | – | > 100 µM
CCCNC(=O)Cn1c2c(c3ccccc31)CCCC2 | > 100 µM | > 100 µM | > 100 µM | 68.8 µM | > 100 µM | > 100 µM | > 100 µM | > 100 µM | > 100 µM | – | > 100 µM | > 100 µM | > 100 µM | > 100 µM | > 100 µM | > 100 µM | > 100 µM | > 100 µM | > 100 µM
CCOC(=O)c1ccc(NCc2ccc3nc(OC)c(OC)nc3c2)cc1 | – | > 100 µM | > 100 µM | – | > 100 µM | > 100 µM | > 100 µM | > 100 µM | > 100 µM | > 100 µM | > 100 µM | > 100 µM | > 100 µM | > 100 µM | > 100 µM | > 100 µM | > 100 µM | – | –
Cc1cc2c3c(nc2c2cc[nH]c(C)c12)CCCC3 | 4.64 µM | 4.27 µM | 16.6 µM | 4.41 µM | 3.02 µM | 3.57 µM | 3.37 µM | – | 3.39 µM | 11.1 µM | 4.69 µM | 3.63 µM | 3.43 µM | 6.25 µM | 2.89 µM | 3.2 µM | 3.66 µM | – | 4.56 µM
Cc1ccc(C(=O)C2C=C(c3ccc(C)cc3)SC3C=CCC32)cc1 (stereo unspecified) | 53.3 µM | 37.3 µM | 39.4 µM | 73.8 µM | – | 33.9 µM | 38 µM | 42.4 µM | 33.1 µM | > 100 µM | 39.5 µM | 36.4 µM | – | 43.1 µM | 29.2 µM | 36.8 µM | 54.3 µM | 37.3 µM | 80.1 µM
COc1nc2c(c(=O)[nH]1)N=C(c1ccccc1)CC(c1ccccc1)N2 (stereo unspecified) | – | > 100 µM | > 100 µM | – | > 100 µM | > 100 µM | > 100 µM | > 100 µM | > 100 µM | > 100 µM | > 100 µM | > 100 µM | > 100 µM | > 100 µM | > 100 µM | > 100 µM | > 100 µM | > 100 µM | 75 µM
C[C@H](CCC(=O)O)[C@H]1CC[C@H]2[C@@H]3[C@@H](O)C[C@@H]4C[C@H](O)CC[C@]4(C)[C@H]3C[C@H](O)[C@]12C | > 100 µM | > 100 µM | > 100 µM | > 100 µM | > 100 µM | > 100 µM | > 100 µM | > 100 µM | > 100 µM | > 100 µM | > 100 µM | > 100 µM | > 100 µM | > 100 µM | – | > 100 µM | > 100 µM | – | > 100 µM
